Source: patent publication US20210198277A1, “AMINE-SUBSTITUTED ARYL OR HETEROARYL COMPOUNDS” (Epizyme, Inc., priority 2016, published 2021)

Tests used:
[1] = target: T1, human EHMT2 913-1193 (Homo sapiens, UniProt Q96KQ7); experiment: EHMT2 enzyme assay on histone peptide substrate (EHMT2 PEP); format: biochemical; conditions: Table VI; read-out: EHMT2 PEP IC50
T1 construct: recombinant purified human EHMT2 913-1193, Viva; purchased Viva
T1 sequence (Q96KQ7 913-1193): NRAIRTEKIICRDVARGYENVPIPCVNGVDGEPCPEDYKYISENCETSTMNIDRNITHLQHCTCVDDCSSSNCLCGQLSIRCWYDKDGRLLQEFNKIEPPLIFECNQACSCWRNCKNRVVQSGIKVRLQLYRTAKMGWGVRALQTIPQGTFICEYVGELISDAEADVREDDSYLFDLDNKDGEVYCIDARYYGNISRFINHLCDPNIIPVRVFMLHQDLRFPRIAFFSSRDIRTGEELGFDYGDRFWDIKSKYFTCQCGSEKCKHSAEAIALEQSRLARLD
Method in brief: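 Inhibition is measured as reduced tritium incorporation into a biotinylated histone peptide from ^3H-SAM. The enzyme (0.031 nM) sees compound for 30 minutes before a 60-minute room-temperature reaction, which unlabeled SAM quenches prior to streptavidin Flashplate capture.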

[2] = target: T2, EHMT1 (Homo sapiens, UniProt Q9H9B1); experiment: EHMT1 enzyme assay on peptide substrate (EHMT1 PEP); format: biochemical; conditions: Table VI; read-out: EHMT1 PEP IC50
T2 sequence (Q9H9B1 1-1298): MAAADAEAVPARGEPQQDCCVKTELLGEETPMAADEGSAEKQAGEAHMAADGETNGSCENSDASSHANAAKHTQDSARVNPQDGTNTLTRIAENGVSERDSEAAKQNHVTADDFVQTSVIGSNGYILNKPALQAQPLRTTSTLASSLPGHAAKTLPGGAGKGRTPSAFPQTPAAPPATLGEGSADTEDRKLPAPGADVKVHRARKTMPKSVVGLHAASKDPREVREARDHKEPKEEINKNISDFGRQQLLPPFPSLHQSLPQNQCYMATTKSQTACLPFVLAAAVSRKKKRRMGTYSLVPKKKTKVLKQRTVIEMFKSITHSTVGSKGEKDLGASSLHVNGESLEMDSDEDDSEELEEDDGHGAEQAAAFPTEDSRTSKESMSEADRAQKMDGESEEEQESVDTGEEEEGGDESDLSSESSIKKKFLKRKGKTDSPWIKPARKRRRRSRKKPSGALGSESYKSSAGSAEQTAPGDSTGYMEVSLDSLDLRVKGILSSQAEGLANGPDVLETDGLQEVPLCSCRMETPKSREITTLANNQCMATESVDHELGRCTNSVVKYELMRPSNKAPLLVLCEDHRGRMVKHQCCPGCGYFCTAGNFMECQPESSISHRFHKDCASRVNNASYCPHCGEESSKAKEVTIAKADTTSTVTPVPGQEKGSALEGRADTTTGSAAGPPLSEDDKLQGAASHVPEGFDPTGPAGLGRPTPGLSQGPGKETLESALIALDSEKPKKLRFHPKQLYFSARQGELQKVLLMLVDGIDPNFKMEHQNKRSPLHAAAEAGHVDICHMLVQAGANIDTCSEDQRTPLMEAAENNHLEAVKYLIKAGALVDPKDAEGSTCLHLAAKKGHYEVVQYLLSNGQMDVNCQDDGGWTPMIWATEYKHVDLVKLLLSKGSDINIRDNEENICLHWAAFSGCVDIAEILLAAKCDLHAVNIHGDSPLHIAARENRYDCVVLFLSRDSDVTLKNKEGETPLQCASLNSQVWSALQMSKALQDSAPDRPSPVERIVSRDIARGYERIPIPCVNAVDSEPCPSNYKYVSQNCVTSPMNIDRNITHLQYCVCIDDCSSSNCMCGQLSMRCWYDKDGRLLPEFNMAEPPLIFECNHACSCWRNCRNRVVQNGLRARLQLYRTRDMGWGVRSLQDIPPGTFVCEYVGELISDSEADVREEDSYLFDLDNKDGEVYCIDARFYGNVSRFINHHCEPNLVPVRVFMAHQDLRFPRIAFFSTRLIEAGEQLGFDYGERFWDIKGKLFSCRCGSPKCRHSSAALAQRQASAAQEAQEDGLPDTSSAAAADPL

IC50 [1] | IC50 [2] | SMILES
1000 to 10000 nM | 1000 to 10000 nM | CNc1ccnc(Nc2ccc(OC)c(OC[C@@H](CN3CCCC3)OC)c2)n1 [Compound 919]
100 to 1000 nM | 100 to 1000 nM | CNC(=O)N1CC(CNc2cc(C)nc(Nc3cnc(OC)c(OCCCN4CCCC4)c3)n2)C1 [Compound 888]
1000 to 10000 nM | 100 to 1000 nM | CNc1nc2cc(OCCCN3CCCC3)c(OC)cc2cc1Cl [Compound 903]
100 to 1000 nM | 100 to 1000 nM | CNc1cc(C)nc(Nc2ccc(OC)c(OC[C@H](O)CN3CC(F)C3)c2)n1 [Compound 986]
100 to 1000 nM | < 100 nM | CNc1ccnc(Nc2ccc(OC)c(OC[C@@H]3CCN(C4CC4)C3)c2)n1 [Compound 928]
> 10000 nM | > 10000 nM | CNc1cc(C)nc(Nc2ccc(C(=O)NCc3ccccc3)c(OC)c2)n1 [Compound 877]
1000 to 10000 nM | 100 to 1000 nM | CNc1ccnc(Nc2ccc(OC)c(OCCC(C)N3CCC3)c2)n1 (centres unmarked) [Compound 1014]
> 10000 nM | 1000 to 10000 nM | CNc1cc(C)nc(Nc2ccc(OC)c(C#CCN3CCOCC3)c2)n1 [Compound 904]
< 100 nM | < 100 nM | CCN1CC[C@@H](COc2cc(Nc3nc(C)cc4[nH]ncc34)ncc2OC)C1 [Compound 947]
> 10000 nM | > 10000 nM | COc1cc2cc(F)c(C)nc2cc1OCCCN1CCCC1 [Compound 896]
100 to 1000 nM | < 100 nM | CNc1ccnc(Nc2cnc(OC)c(OC[C@@H]3CCN(C4CCC4)C3)n2)n1 [Compound 974]
< 100 nM | < 100 nM | CNc1cc(C)nc(Nc2ccc(OC)c(CNCCN3CCC3)c2)n1 [Compound 965]
> 10000 nM | > 10000 nM | CNc1ccnc(Nc2ccc(OC)c(OC[C@@H]3CNCCO3)c2)n1 [Compound 938]
100 to 1000 nM | 100 to 1000 nM | COc1cc2c(C3CCN(C)CC3)nc(N3CCCC3)nc2cc1OCCCN1CC(O)C1 [Compound 950]
> 10000 nM | > 10000 nM | CNC[C@H](COc1cc(Nc2nccc(NC)n2)ccc1OC)OC [Compound 921]
100 to 1000 nM | 100 to 1000 nM | CNc1cc(C)nc(Nc2ccc(OC)c(OC[C@H](O)CNC3CCC3)c2)n1 [Compound 962]
< 100 nM | < 100 nM | CCNc1cc(C2CCOCC2)c2cc(OC)c(OCCCN3CCCC3)cc2n1 [Compound 865]
< 100 nM | < 100 nM | CNc1cc(C)nc(Nc2cnc(OC)c(OC[C@H](O)CN3CCC3)c2)n1 [Compound 963]
> 10000 nM | > 10000 nM | CNc1cc(C)nc(Nc2ccc(OC)c(OCCCc3nc(Cl)cn3C)c2)n1 [Compound 891]
1000 to 10000 nM | 100 to 1000 nM | CNc1ccnc(Nc2ccc(OC)c(OCCC(C)NC)c2)n1 (centres unmarked) [Compound 1016]
100 to 1000 nM | < 100 nM | CNCCNCc1cc(Nc2nc(C)cc(NC)n2)ccc1OC [Compound 964]
100 to 1000 nM | < 100 nM | CNc1cc(C)nc(Nc2ccc(OC)c(OC[C@H](O)CN3CC(C)C3)c2)n1 [Compound 985]
100 to 1000 nM | < 100 nM | CNc1ccnc(Nc2ccc(OC)c(OCC(C)CN3CCC3)c2)n1 (centres unmarked) [Compound 1008]
100 to 1000 nM | 100 to 1000 nM | CNC(=O)CCNc1cc(C)nc(Nc2cnc(OC)c(OCCCN3CCCC3)c2)n1 [Compound 887]
> 10000 nM | > 10000 nM | COc1ncc(Nc2nc(C)cc(NCC3COC3)n2)cc1OC[C@@H](O)CN1CCCC1 [Compound 883]
< 100 nM | < 100 nM | CNc1cc(C)nc(Nc2ccc(OC)c(CNCCN(C)C)c2)n1 [Compound 990]
1000 to 10000 nM | 1000 to 10000 nM | CNc1nc(C2=CC(C)(C)NC(C)(C)C2)c2cc(OC)c(OCCCN3CCCC3)cc2n1 [Compound 961]
100 to 1000 nM | 100 to 1000 nM | CNc1cc(C)nc(Nc2ccc(OC)c(OC[C@@H](O)CN3CCCC3)c2)n1 [Compound 905]
